Results on 1 compound are retold here after patent US9095653B2, “Method for the timed dosage of medicaments” (BAYER INTELLECTUAL PROPERTY GMBH, priority 2004, dated 2015).

For data set [1] the following is noted: average value for an adult human; cited from earlier work.
Data set [2] in a line: Lipophilicity (LogMA), substance input parameter for PK-Sim. The class given is physicochemical.
For data set [3] the following is noted: cited from earlier work.
Data set [4] can be described thus: Plasma clearance adapted in PK-Sim simulation to experimental literature concentration-time profiles. The note with it: human, read-out: plasma clearance CL. The class given is in vivo, humans. The procedure: Drug Dispos. 20, 417-419 (1999)) and a muscle concentration-time profile from the literature (M. Müller, B. v. Osten, R. Schmid, E. Piegler, I. Gerngross, H. Buchegger, H. G. Eichler: “Theophylline kinetics in peripheral tissues in vivo in humans”, Naunyn-Schmiedeberg's Arch. Pharmacol. 352, 438-441 (1995)) (FIG. 2).
The plasma clearance here is CL=0.40 ml/min/kg. (source: [12]) • b) Intravenous infusion of 240 mg over 10 minutes. […] (source: [13]) • c) Peroral administration of 200 mg of an immediately releasing formulation (mean and standard deviation of three bioequivalent immediate release capsules).

The nature of data set [5]: Solubility, substance input parameter. It counts as physicochemical. The settings on record: input parameter for PK-Sim.

In brackets after ≈: the same amount, converted by molar mass. Read-outs that look alike come from different tables or passages of the source.

As usually defined, the solubility is how much of the substance goes into solution per volume. High values mean a readily soluble substance, low ones a poorly soluble substance. On to `Cn1c(=O)c2[nH]cnc2n(C)c1=O` [Theophylline], for which the Free plasma fraction in data set [1] is reported as 59%. The “Lipophilicity (LogMA)” value in data set [2] is given as −0.2. Also, the “plasma concentration below which a sufficient anti-asthmatic effect is not generally achieved” value in data set [3] was “below 5 mg/l”. Moreover, the clearance is 0.4 mL/min/kg in data set [4] (intravenous infusion of 5.58 mg/kg over 20 minutes, adapted to experimental data (FIG. 2a)); 0.25 mL/min/kg in data set [4] (intravenous infusion of 240 mg over 10 minutes, adapted to experimental data (FIG. 2b)); 0.5 mL/min/kg in data set [4] (oral, peroral administration of 200 mg immediately releasing formulation, adapted to experimental data (FIG. 2c)). This compound yielded a solubility in data set [5] of 2800 µg/mL (≈ 15.5 mM).
